Common to all, as to format: cell-based, human
One assay has as its system SULT2B1. Description: QRT-PCR assay of SULT2B1 mRNAs in C4-2B cells. To be noted: EB1089 10 nM, R1881 1 nM, FIG. 3B. From the text: (§1) Dampened vitamin D/VDR-induced CYP24A1 mRNA expression in the presence of androgen is beneficial, as it would prevent ligand degradation, thereby enhancing VDR signaling.
A further assay concerns CYP24A1. Description: Regulation of CYP24A1 mRNA expression in C4-2B castration-resistant cells (QRT-PCR).
Source text: FIG. 2. Regulation of CYP24A1 in C4-2B castration resistant cell lines.
CYP24A1 induction by calcitriol has been reported by many laboratories. However, complete suppression of this induction by androgen has not been reported in the literature.
as §1

The next assay deals with HSD3β-1. Put plainly: Regulation of HSD3β-1 expression (quantitative RT-PCR, Western blot) in castration-resistant prostate cancer cell lines. Particulars: C4-2B and C4-2 castration-resistant prostate cancer cell lines; FIG. 1. From the text:
FIG. 1. Regulation of HSD3β-1 in C4-2B castration-resistant cell lines.
In general terms: Immunoblotting shows a protein as a band on a membrane.

Consider two compounds from patent US20190038641A1, “COMBINATION THERAPY FOR CASTRATION-RESISTANT PROSTRATE CANCER” (The Board of Regents of the University of Texas System, priority 2016, published 2019).

As for `C=C1/C(=C\C=C2/CCC[C@]3(C)[C@@H]([C@H](C)/C=C/C=C/C(O)(CC)CC)CC[C@@H]23)C[C@@H](O)C[C@@H]1O` [EB1089], the “induction of SULT2B1 mRNAs” value with SULT2B1 is “induction”. The “CYP24A1 mRNA expression (induction)” value in the assay with CYP24A1 (C4-2B cells, EB1089 10 nM, R1881 1 nM, FIG. 3A) was around 2000 fold.
On to `C=C1/C(=C\C=C2/CCC[C@]3(C)[C@@H]([C@H](C)CCCC(C)(C)O)CC[C@@H]23)C[C@@H](O)C[C@@H]1O` [calcitriol, 1,25-dihydroxycholecalciferol], for which, in the assay on HSD3β-1, the “expression of HSD3β-1 (messenger RNA and protein levels)” value was “strongly induced”. For the same compound, the “induction of CYP24A1” value in the assay on CYP24A1 (C4-2B castration-resistant cells, calcitriol with or without androgen, FIG. 2) was “three orders of magnitude and more”.
